Results as given in ChEMBL document CHEMBL4622878, “Cytotoxic Activity of Germacrane-Type Sesquiterpene Lactones from Dimerostemma aspilioides” (J Nat Prod, 2020).
Calls of active or inactive are those of the source. The rule behind the calls is not given here.

Assays:
[1] = test system: K562; assay: Cytotoxicity against human K562 cells after 48 hrs by MTT assay; format: functional, cell-based; settings: K562, 48 h
[2] = test system: ADR5000 cell line; assay: Cytotoxicity against human CEM/ADR5000 cells after 48 hrs by MTT assay; format: functional, cell-based; settings: ADR5000, 48 h
[3] = test system: K562-Lucena 1; assay: Cytotoxicity against human K562-Lucena 1 cells after 48 hrs by MTT assay; format: functional, cell-based; settings: K562-Lucena 1, 48 h
[4] = test system: CCRF-CEM; assay: Cytotoxicity against human CCRF-CEM cells after 48 hrs by MTT assay; format: functional, cell-based
[5] = test system: K562-Lucena 1; assay: Induction of cell cycle arrest in human K562-Lucena 1 cells assessed as late apoptotic cells at 2 mM after 24 hrs by propidium iodide staining based flow cytometric analysis (reference value: 3.15%); format: functional
[6] = test system: K562; assay: Induction of morphological changes in human K562 cells assessed as appearance of condensed chromatin at 2 mM incubated for 48 hrs by DAPI staining based fluorescence microscopy; format: functional, cell-based
[7] = test system: K562; assay: Induction of apoptosis in human K562 cells assessed as early apoptotic cells at 2 mM after 24 hrs by Annexin V-FITC/PI double staining based flow cytometry analysis (reference value: 2.76%); format: functional
[8] = test system: K562; assay: Induction of apoptosis in human K562 cells assessed as necrotic cells at 2 mM after 48 hrs by Annexin V-FITC/PI double staining based flow cytometry analysis (reference value: 0.13%); format: functional
[9] = test system: K562; assay: Induction of morphological changes in human K562 cells assessed as appearance of apoptotic bodies at 2 mM incubated for 48 hrs by DAPI staining based fluorescence microscopy; format: functional, cell-based
[10] = test system: K562-Lucena 1; assay: Induction of cell cycle arrest in human K562-Lucena 1 cells assessed as viable cells at 2 mM after 24 hrs by propidium iodide staining based flow cytometric analysis (reference value: 88%); format: functional; settings: K562-Lucena 1, 24 h, read-out: Activity
[11] = test system: K562-Lucena 1; assay: Induction of morphological changes in human K562-Lucena 1 cells assessed as appearance of condensed chromatin at 2 mM incubated for 48 hrs by DAPI staining based fluorescence microscopy; format: functional, cell-based
[12] = test system: K562; assay: Induction of apoptosis in human K562 cells assessed as necrotic cells at 2 mM after 24 hrs by Annexin V-FITC/PI double staining based flow cytometry analysis (reference value: 0.085%); format: functional
[13] = test system: K562-Lucena 1; assay: Induction of DNA fragmentation in human K562-Lucena 1 cells at 2 mM incubated for 48 hrs by DAPI staining based fluorescence microscopy; format: functional, cell-based
[14] = test system: K562-Lucena 1; assay: Induction of cell cycle arrest in human K562-Lucena 1 cells assessed as necrotic cells at 2 mM after 48 hrs by propidium iodide staining based flow cytometric analysis (reference value: 2.15%); format: functional
[15] = test system: K562; assay: Induction of apoptosis in human K562 cells assessed as early apoptotic cells at 2 mM after 48 hrs by Annexin V-FITC/PI double staining based flow cytometry analysis (reference value: 1.67%); format: functional
[16] = test system: K562-Lucena 1; assay: Induction of cell cycle arrest in human K562-Lucena 1 cells assessed as early apoptotic cells at 2 mM after 48 hrs by propidium iodide staining based flow cytometric analysis (reference value: 7.57%); format: functional
[17] = test system: K562-Lucena 1; assay: Induction of cell cycle arrest in human K562-Lucena 1 cells assessed as viable cells at 2 mM after 48 hrs by propidium iodide staining based flow cytometric analysis (reference value: 87.1%); format: functional; settings: K562-Lucena 1, 48 h, read-out: Activity
[18] = test system: K562; assay: Induction of apoptosis in human K562 cells assessed as viable cells at 2 mM after 24 hrs by Annexin V-FITC/PI double staining based flow cytometry analysis (Rvb =96.4%); format: functional; settings: K562, 24 h, read-out: Activity
[19] = test system: K562-Lucena 1; assay: Induction of morphological changes in human K562-Lucena 1 cells assessed as appearance of apoptotic bodies at 2 mM incubated for 48 hrs by DAPI staining based fluorescence microscopy; format: functional, cell-based
[20] = test system: K562; assay: Induction of apoptosis in human K562 cells assessed as late apoptotic cells at 2 mM after 48 hrs by Annexin V-FITC/PI double staining based flow cytometry analysis (reference value: 0.41%); format: functional
[21] = test system: K562; assay: Induction of apoptosis in human K562 cells assessed as viable cells at 2 mM after 48 hrs by Annexin V-FITC/PI double staining based flow cytometry analysis (Rvb =97.8%); format: functional; settings: K562, 48 h, read-out: Activity
[22] = test system: K562; assay: Induction of apoptosis in human K562 cells assessed as late apoptotic cells at 2 mM after 24 hrs by Annexin V-FITC/PI double staining based flow cytometry analysis (reference value: 0.79%); format: functional
[23] = test system: K562-Lucena 1; assay: Induction of cell cycle arrest in human K562-Lucena 1 cells assessed as necrotic cells at 2 mM after 24 hrs by propidium iodide staining based flow cytometric analysis (reference value: 1.03%); format: functional
[24] = test system: K562; assay: Induction of DNA fragmentation in human K562 cells at 2 mM incubated for 48 hrs by DAPI staining based fluorescence microscopy; format: functional, cell-based
[25] = test system: K562-Lucena 1; assay: Induction of cell cycle arrest in human K562-Lucena 1 cells assessed as early apoptotic cells at 2 mM after 24 hrs by propidium iodide staining based flow cytometric analysis (reference value: 7.79%); format: functional
[26] = test system: K562-Lucena 1; assay: Induction of cell cycle arrest in human K562-Lucena 1 cells assessed as late apoptotic cells at 2 mM after 48 hrs by propidium iodide staining based flow cytometric analysis (reference value: 3.23%); format: functional

With C=C(CO)C(=O)O[C@H]1C/C(COC(C)=O)=C/CC/C(C)=C/[C@H]2OC(=O)C(=C)[C@H]12 the IC50 [1] was greater than 10 µM, the IC50 [2] was 7.7 µM and the IC50 [3] was greater than 10 µM. The IC50 [4] was 3.5 µM.

In the case of NC(=O)NO [HYDROXYUREA], the Activity [5] is reported as 5.06%, the Activity [6] is reported as “Active” and the Activity [7] is reported as 2.82%. The Activity [8] was 1.5%, the Activity [9] was “Active” and the viability at 2000 µM [10] was 77.7%. The Activity [11] was “Active”, the Activity [12] was 0.75% and the Activity [13] was “Active”. For the same compound, the Activity [14] was 5.57%, the Activity [15] was 21.9% and the Activity [16] was 22.1%. The viability at 2000 µM [17] was 60.1%, the viability at 2000 µM [18] was 96% and the Activity [19] was “Active”. The Activity [20] was 6.06%, the viability at 2000 µM [21] was 70.5% and the Activity [22] was 0.45%. For the same compound, the Activity [23] was 1.99%, the Activity [24] was “Active” and the Activity [25] was 15.3%. For the same compound, the Activity [26] was 12.2%.
